The text below walks through data of patent US10821115B2, “Compounds that inhibit Mcl-1 protein” (priority 2017, dated 2020).

Read-outs that look alike come from different tables or passages of the source.

Assay [1] deals with human multiple myeloma cell line, OPM-2. The assay can be described thus: Cell viability assay (OPM-2 10 FBS), CellTiter-Glo. It counts as cell-based. The gist of the method:
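OPM-2 cells at 3000 cells/well in RPMI 1640 with 10% FBS were exposed to serially diluted compounds for 16 h at 37 °C, 5% CO2.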

The target in assay [2] is recombinant human Mcl-1 (residues 171-327) / Bim interaction (Homo sapiens (Human), UniProt Q07820). Kind of assay: biochemical. As to conditions: read-out: Mcl-1 HTRF IC50. It counts as binding. Background: Time-resolved FRET reads energy transfer from a long-lived donor to a nearby acceptor.
Where [3] appears, read: Homo sapiens, OPM-2, 16 h, read-out: OPM-2 10% FBS IC50 IP, OPM-2 cells, 10% FBS, 16 h, CellTiter-Glo.
Where [4] appears, read: TR-FRET, Mcl-1(171-327) / biotin-Bim (51-76).
Where [5] appears, read: Homo sapiens, OPM-2, 16 h, read-out: OPM-2 10% FBS IC50 IP, OPM-2 cells, 10% FBS, 16 h incubation.
[6] abbreviates: 0.1 nM Mcl-1(171-327), 0.05 nM biotin-Bim (51-76).
The mark [7] stands for this setting: read-out: OPM-2 10% FBS IC50 IP, OPM-2 cells, 10% FBS, 16 h, CellTiter-Glo.

Chain of recombinant human Mcl-1 (residues 171-327) / Bim interaction (Q07820 171-327): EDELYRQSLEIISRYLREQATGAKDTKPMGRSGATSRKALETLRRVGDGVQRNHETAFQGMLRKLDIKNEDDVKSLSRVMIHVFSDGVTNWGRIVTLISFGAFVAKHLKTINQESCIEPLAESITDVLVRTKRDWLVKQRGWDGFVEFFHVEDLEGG

A word on the IC50: it is the midpoint of a concentration-inhibition curve. For the compound `Cc1onc(C[C@]2(O)/C=C/C[C@H](C)[C@@H](C)S(=O)(=O)NC(=O)c3ccc4c(c3)N(C[C@@H]3CC[C@H]32)C[C@@]2(CCCc3cc(Cl)ccc32)CO4)c1C` [Example 100578, (1S,3′R,6′R,7′S,8′E,11′S,12′R)-6-chloro-7′-((4,5-dimethyl-1,2-oxazol-3-yl)methyl)-7′-hydroxy-11′,12′-dimethyl-3,4-dihydro-2H,15′H-spiro[naphthalene-1,22′-[20]oxa[13]thia[1,14]diazatetracyclo [14.7.2.0~3,6~.0~19,24~]pentacosa[8,16,18,24]tetraen]-15′-one 13′,13′-dioxide], the IC50 in assay [1] (setting [3]) is 595 nM; in assay [2] (setting [4]), 0.089 nM.

In the case of `CO[C@]1(CN2CCN(C)CC2)/C=C/C[C@H](C)[C@@H](C)S(=O)(=O)NC(=O)c2ccc3c(c2)N(C[C@@H]2CC[C@H]21)C[C@@]1(CCCc2cc(Cl)ccc21)CO3` [Example 62], the values for the IC50 in assay [1] (setting [5]) and in assay [2] (setting [6]) were 110 nM and 0.115 nM, respectively.

On to `CO[C@@]1(C#CCCN2CCN3CCOC[C@@H]3C2)/C=C/C[C@H](C)[C@@H](C)S(=O)(=O)NC(=O)c2ccc3c(c2)N(C[C@@H]2CC[C@H]21)C[C@@]1(CCCc2cc(Cl)ccc21)CO3` [Example 100011, (1 S,3′R,6′R,7′S,8′E,11′S, 12′R)-6-chloro-7′-(4-((9aS)-hexahydropyrazino[2,1-c][1,4]oxazin-8(1H)-yl)-1-butyn-1-yl)-7′-methoxy-11′,12′-dimethyl-3,4-dihydro-2H,15′H-spiro[naphthalene-1,22′-[20]oxa[13]thia[1,14]diazatetracyclo[14.7.2.0-3,6˜.0˜19,24˜]pentacosa[8,16,18,24]tetraen]-15′-one 13′,13′-dioxide], for which the IC50 was 134 nM in assay [1] (setting [3]) and 0.153 nM in assay [2] (setting [4]).

As to `CO[C@@]1(CN2CCN(c3ncccn3)CC2)/C=C/C[C@H](C)[C@@H](C)S(=O)(=O)NC(=O)c2ccc3c(c2)N(C[C@@H]2CC[C@H]21)C[C@@]1(CCCc2cc(Cl)ccc21)CO3` [Example 256, (1S,3′R,6′R,7′S,8′E,11′S,12′R)-6-chloro-7′-methoxy-11′,12′-dimethyl-7′-((4-(2-pyrimidinyl)-1-piperazinyl)methyl)-3,4-dihydro-2H,15′H-spiro[naphthalene-1,22′-[20]oxa[13]thia[1,14]diazatetracyclo [14.7.2.0~3,6~.0~19,24~]pentacosa[8,16,18,24]tetraen]-15′-one 13′,13′-dioxide], the values for the IC50 in assay [1] (setting [5]) and in assay [2] (setting [6]) were 1640 nM and 0.433 nM, respectively.

For the compound `C[C@@H]1[C@@H](C)C/C=C/[C@@](O)(CC(=O)N2CCCCC2)[C@@H]2CC[C@H]2CN2C[C@@]3(CCCc4cc(Cl)ccc43)COc3ccc(cc32)C(=O)NS1(=O)=O` [Example 100257, (1S,3′R,6′R,7′S,8′E,11′S,12′R)-6-chloro-7′-hydroxy-11′,12′-dimethyl-7′-(2-oxo-2-(1-piperidinyl)ethyl)-3,4-dihydro-2H,15′H-spiro[naphthalene-1,22′-[20]oxa[13]thia[1,14]diazatetracyclo [14.7.2.0~3,6~.0~19,24~]pentacosa[8,16,18,24]tetraen]-15′-one 13′,13′-dioxide], the IC50 worked out at 80 nM in assay [1] (setting [7]) and 0.18 nM in assay [2] (setting [4]).

Consider `C=C(F)C[C@@]1(OC)/C=C/C[C@H](C)[C@@H](C)S(=O)(=O)NC(=O)c2ccc3c(c2)N(C[C@@H]2CC[C@H]21)C[C@@]1(CCCc2cc(Cl)ccc21)CO3` [Example 100568, (1S,3′R,6′R,7′R,8′E,11′S,12′R)-6-chloro-7′-(2-fluoro-2-propen-1-yl)-7′-methoxy-11′,12′-dimethyl-3,4-dihydro-2H,15′H-spiro[naphthalene-1,22′-[20]oxa[13]thia[1,14]diazatetracyclo [14.7.2.0~3,6~.0~19,24~]pentacosa[8,16,18,24]tetraen]-15′-one 13′,13′-dioxide], for which the values for the IC50 in assay [1] (setting [3]) and in assay [2] (setting [4]) were 1540 nM and 0.431 nM, respectively.

As for `C[C@@H]1[C@@H](C)CCC[C@](O)(COCCN(C)C)[C@@H]2CC[C@H]2CN2C[C@@]3(CCCc4cc(Cl)ccc43)COc3ccc(cc32)C(=O)NS1(=O)=O` [Example 100195, (1S,3′R,6′R,7′R,11′S,12′R)-6-chloro-7′-((2-(dimethylamino)ethoxy)methyl)-7′-hydroxy-11′,12′-dimethyl-3,4-dihydro-2H,15′H-spiro[naphthalene-1,22′-[20]oxa[13]thia[1,14]diazatetracyclo [14.7.2.0~3,6~.0~19,24~]pentacosa[16,18,24]trien]-15′-one 13′,13′-dioxide], the IC50 was 625 nM in assay [1] (setting [3]) and 1.07 nM in assay [2] (setting [4]).

With `CO[C@@]1(CN2CCN(Cc3nc(C)no3)CC2)/C=C/C[C@H](C)[C@@H](C)S(=O)(=O)NC(=O)c2ccc3c(c2)N(C[C@@H]2CC[C@H]21)C[C@@]1(CCCc2cc(Cl)ccc21)CO3` [Example 317, (1S,3′R,6′R,7′S,8′E,11′S,12′R)-6-chloro-7′-methoxy-11′,12′-dimethyl-7′-((4-((3-methyl-1,2,4-oxadiazol-5-yl)methyl)-1-piperazinyl)methyl)-3,4-dihydro-2H,15′H-spiro[naphthalene-1,22′-[20]oxa[13]thia[1,14]diazatetracyclo [14.7.2.0~3,6~.0~19,24~]pentacosa[8,16,18,24]tetraen]-15′-one 13′,13′-dioxide], the values for the IC50 in assay [1] (setting [5]) and in assay [2] (setting [6]) were 88 nM and 0.186 nM, respectively.

In the case of `C[C@@H]1[C@@H](C)CCC[C@@]2(CC(N(C)C)=NO2)[C@@H]2CC[C@H]2CN2C[C@@]3(CCCc4cc(Cl)ccc43)COc3ccc(cc32)C(=O)NS1(=O)=O` [Example 100197, (1S,3′R,6′R,7′R,11′S,12′R)-6-chloro-3″- (dimethylamino)-11′,12′-dimethyl-3,4-dihydro-2H,4″H,15′H-dispiro[naphthalene-1,22′-[20]oxa[13]thia[1,14]diazatetracyclo [14.7.2.0~3,6~.0~19,24~]pentacosa[16,18,24]triene-7′,5″-[1,2]oxazol]-15′-one 13′,13′-dioxide], the figures for the IC50 in assay [1] (setting [3]) and in assay [2] (setting [4]) were 2460 nM and 0.774 nM, respectively.

Take `CO[C@@]1(CN2CCC3(CCOCC3)CC2)/C=C/C[C@H](C)[C@@H](C)S(=O)(=O)NC(=O)c2ccc3c(c2)N(C[C@@H]2CC[C@H]21)C[C@@]1(CCCc2cc(Cl)ccc21)CO3` [Example 264, (1S,3′R,6′R,7′S,8′E,11′S,12′R)-6-chloro-7′-methoxy-11′,12′-dimethyl-7′-(3-oxa-9-azaspiro[5.5]undec-9-ylmethyl)-3,4-dihydro-2H,15′H-spiro[naphthalene-1,22′-[20]oxa[13]thia[1,14]diazatetracyclo [14.7.2.0~3,6~.0~19,24~]pentacosa[8,16,18,24]tetraen]-15′-one 13′,13′-dioxide]: the IC50 in assay [1] (setting [5]) came to 771 nM; in assay [2] (setting [6]), 0.396 nM.

In the case of `CO[C@@]1(CN2CCC3(CC2)COC3)/C=C/C[C@H](C)[C@@H](C)S(=O)(=O)NC(=O)c2ccc3c(c2)N(C[C@@H]2CC[C@H]21)C[C@@]1(CCCc2cc(Cl)ccc21)CO3` [Example 267, (1S,3′R,6′R,7′S,8′E,11′S,12′R)-6-chloro-7′-methoxy-11′,12′-dimethyl-7′-(2-oxa-7-azaspiro[3.5]non-7-ylmethyl)-3,4-dihydro-2H,15′H-spiro[naphthalene-1,22′-[20]oxa[13]thia[1,14]diazatetracyclo [14.7.2.0~3,6~.0~19,24~]pentacosa[8,16,18,24]tetraen]-15′-one 13′,13′-dioxide], the IC50 was found to be 250 nM in assay [1] (setting [5]) and 0.297 nM in assay [2] (setting [6]).

With `CN[C@@H]1C[C@H](C)[C@@H](C)S(=O)(=O)NC(=O)c2ccc3c(c2)N(C[C@@H]2CC[C@H]2[C@@](C)(O)C1)C[C@@]1(CCCc2cc(Cl)ccc21)CO3` [Example 100064, (1S,3′R,6′R,7′S,9′R,11′S,12′R)-6-chloro-7′-hydroxy-7′,11′,12′-trimethyl-9′-(methylamino)-3,4-dihydro-2H,15′H-spiro[naphthalene-1,22′-[20]oxa[13]thia[1,14]diazatetracyclo [14.7.2.0~3,6~.0~19,24~]pentacosa[16,18,24]trien]-15′-one 13′,13′-dioxide], the IC50 in assay [1] (setting [3]) is 3730 nM; in assay [2] (setting [4]) it was 2.54 nM.

As for `C=CCOC[C@]1(O)/C=C/C[C@H](C)[C@@H](C)S(=O)(=O)NC(=O)c2ccc3c(c2)N(C[C@@H]2CC[C@H]21)C[C@@]1(CCCc2cc(Cl)ccc21)CO3` (single isomer, unassigned) [Example 100496], the results for the IC50 in assay [1] (setting [3]) and in assay [2] (setting [4]) were 5060 nM and 2.67 nM, respectively.

Turning to `CC(C)C[C@]1(O)/C=C/C[C@H](C)[C@@H](C)S(=O)(=O)NC(=O)c2ccc3c(c2)N(C[C@@H]2CC[C@H]21)C[C@@]1(CCCc2cc(Cl)ccc21)CO3` [Example 100224, (1S,3′R,6′R,7′S,8′E,11′S,12′R)-6-chloro-7′-hydroxy-11′,12′-dimethyl-7′-(2-methylpropyl)-3,4-dihydro-2H,15′H-spiro[naphthalene-1,22′-[20]oxa[13]thia[1,14]diazatetracyclo [14.7.2.0~3,6~.0~19,24~]pentacosa[8,16,18,24]tetraen]-15′-one 13′,13′-dioxide], the figures for the IC50 in assay [1] (setting [3]) and in assay [2] (setting [4]) were 385 nM and 0.345 nM, respectively.

For the compound `C[C@@H]1[C@@H](C)C/C=C/[C@@](O)(CS(C)(=O)=O)[C@@H]2CC[C@H]2CN2C[C@@]3(CCCc4cc(Cl)ccc43)COc3ccc(cc32)C(=O)NS1(=O)=O` [Example 100073, (1S,3′R,6′R,7′S,8′E,11′S,12′R)-6-chloro-7′-hydroxy-11′,12′-dimethyl-7′-((methylsulfonyl)methyl)-3,4-dihydro-2H,15′H-spiro[naphthalene-1,22′-[20]oxa[13]thia[1,14]diazatetracyclo [14.7.2.0~3,6~.0~19,24~]pentacosa[8,16,18,24]tetraen]-15′-one 13′,13′-dioxide], the IC50 in assay [1] (setting [7]) was 1200 nM; in assay [2] (setting [4]) it was 0.346 nM.
